According to patent EP0464233A1, “Pharmaceutical combinations against malaria” (priority 1990, dated 1992):
Read-outs that look alike come from different tables or passages of the source.

Tested on: P. berghei NS (resistant to chlorquine)
Experiment: 4-day suppressive test (blood schizontocidal activity), chess-board / isobologram analysis
Assay type: in vivo, Plasmodium berghei
Conditions: for group mean of parasitaemia as of control: male Swiss mice, D + 4, ± standard error; for parasitaemia: Arteether alone, male mouse, Table II (extended doses); for ED50 / ED90: Plasmodium berghei, in Mus musculus, po
Description: The evaluation of blood schizontocidal activities was carried out following the procedure described herein after using the Chloroquine-resistant strain of P. berghei (NS) strain. (Chawira A. N., et al. 1987, Trans, R. Soc. Trop. Med. Hyg. 81 : 554-558).
The methodology followed in the present study was adopted form "4- day suppressive test" (ref. Peters, W.; 1987, Chemotherapy and Drug Resistance in Malaria, Vol. 1, p 111). The experimental data has been analysed by Chess Board Method in the form of an isobologram, (Ref. Chawira A. N., and Warhurst D. C.; 1987, J. Trop. Med. Hyg. 90 : 1-8). ED₅₀ and ED₉₀ was determined using a log-probit method.
Host .. Swiss Mice (20-22 gms) Sex .. Male Parasit .. P. berghei NS (resistant to chlorquine) Route of Infection .. Intravenous Route of drug Administration .. per os
Artheether : A few drops of Kardi oil and Tween^R 80 were added to Arteether to make a paste, followed by 0.5 % Tylose^R (Carboxy methyl cellulose) solution. A homogenous suspension was prepared using a tissue homogenizer in Teflon^R coated glass tube. […] Mefloquine HCl : A solution was prepared in 0.5 % Tylose using a tissue homogenizer.
Drug was administered as follows: (+ 2 H, 24 H, 48 H, 72 H) Each day one dose for 4 days
Slides were drawn from individual mouse and stained with Giemsa on D + 4. The slides were examined under oil immersion lens and parasitaemia was recorded from 15 fields at random. The average of infected and uninfected erythrocytes was determined for each animal. Finally the average parasitaemia of the whole group was determined and considered as 100 % for comparison purposes with the treated group.
At least 5000 to 7500 erythrocytes were examined at random to determine the parasitaemia. In certain cases, where parasitaemia was extremely low 10000 to 15000 erythrocytes were examined.

Compound	group mean of parasitaemia as of control (Arteether 0.25 mg/kg X 4, p.o., no Quinine)	group mean of parasitaemia as of control (Arteether 0.5 mg/kg X 4, p.o., no Quinine)	group mean of parasitaemia as of control (Arteether 1.0 mg/kg X 4, p.o., no Quinine)	group mean of parasitaemia as of control (Arteether 2.0 mg/kg X 4, p.o., no Quinine)	parasitaemia (Dose 2.0 mg/kg X 4)	parasitaemia (Dose 3.0 mg/kg X 4)	parasitaemia (Dose 4.0 mg/kg X 4)	parasitaemia (Dose 5.0 mg/kg X 4)	ED50	ED90	ED50 (read-out: ED50 of Arteether)	ED90 (read-out: ED90 of Arteether)	ED50 (read-out: ED50 of Quinine)	ED90 (read-out: ED90 of Quinine)	group mean of parasitaemia as of control (Quinine 25 mg/kg X 4, p.o., no Arteether)	group mean of parasitaemia as of control (Quinine 37.5 mg/kg X 4, p.o., no Arteether)	group mean of parasitaemia as of control (Quinine 50 mg/kg X 4, p.o., no Arteether)
CCO[C@H]1O[C@@H]2O[C@@]3(C)CC[C@H]4[C@H](C)CC[C@@H]([C@H]1C)[C@@]24OO3 [Arteether]	90 ± 13.9	87 ± 10.8	84 ± 10.8	77 ± 1.27	82	57	25	12	2.8 mg/kg	5.2 mg/kg	2.8 mg/kg	5.2 mg/kg					
C=C[C@H]1C[N@@]2CC[C@H]1C[C@H]2[C@H](O)c1ccnc2ccc(OC)cc12 [Quinine]													61 mg/kg	110 mg/kg	92 ± 2.36	85 ± 5.8	70 ± 11.8
